Assay: Inhibition of p37 in Vaccinia virus Copenhagen infected in African green monkey Vero cells assessed as reduction in viral reproduction incubated for 4 days by neutral red dye based colorimetric analysis
Compound `CC12CC3CC(C1)CC(NC(=O)c1ccc(C(F)(F)F)cc1)(C3)C2` has an IC50 of 8.98 µM. For `CCC12CC3CC(C1)CC(C(=O)NNC(=O)c1ccc(C(F)(F)F)cc1)(C3)C2`, the IC50 was 12.5 µM. Work on `CCC12CC3CC(C1)CC(NC(=O)c1ccc(C(F)(F)F)cc1)(C3)C2` yielded an IC50 of 4.1 µM. `O=C(NN1C(=O)[C@@H]2[C@@H]3C=C[C@@H]([C@H]4C[C@@H]34)[C@@H]2C1=O)c1ccc(C(F)(F)F)cc1` [Tecovirimat] gave an IC50 of 0.0027 µM. `CN(C(=O)c1ccc(C(F)(F)F)cc1)C12CC3CC(CC(C3)C1)C2` gave an IC50 of 4.85 µM. `CC(NNC(=O)c1ccc(C(F)(F)F)cc1)C12CC3CC(CC(C3)C1)C2` (stereo not drawn) showed an IC50 of 0.515 µM. For `O=C(NC1C2CC3CC(C2)CC1C3)c1ccc(Br)cc1` (stereo not drawn), the IC50 was 3.06 µM. `O=C(NNC(=O)C12CC3CC(CC(C3)C1)C2)c1ccc(C(F)(F)F)cc1` gave an IC50 of 1.07 µM. `O=C(NCC12CC3CC(CC(C3)C1)C2)c1ccc(Br)cc1` gave an IC50 of 8.3 µM. In the case of `O=C(NC1C2CC3CC(C2)CC1C3)c1ccc(C(F)(F)F)cc1` (stereo not drawn), the IC50 is reported as 0.216 µM. With `CC12CC3CC(C)(C1)CC(C(=O)NNC(=O)c1ccc(C(F)(F)F)cc1)(C3)C2` the IC50 was 30.9 µM. In the case of `O=C(NC12CC3CC(CC(C3)C1)C2)c1ccc(C(F)(F)F)cc1`, the IC50 is reported as 0.133 µM. With `O=C(NCC12CC3CC(CC(C3)C1)C2)c1ccc(C(F)(F)F)cc1` the IC50 was 0.27 µM. For `O=C(NNC1C2CC3CC(C2)CC1C3)c1ccc(C(F)(F)F)cc1` (stereo not drawn), the IC50 was 2.8 µM. Work on `O=C(NN=C1C2CC3CC(C2)CC1C3)c1ccc(C(F)(F)F)cc1` yielded an IC50 of 198 µM. In the case of `O=C(NNC(=O)c1ccc(C(F)(F)F)cc1)NC12CC3CC(CC(C3)C1)C2`, the IC50 is reported as 36.3 µM. For `O=C(NNC1C2CC3CC1CC(Cl)(C3)C2)c1ccc(C(F)(F)F)cc1` (stereo not drawn), the IC50 was 3.52 µM. For `CCC12CC3CC(C1)CC(NNC(=O)c1ccc(C(F)(F)F)cc1)(C3)C2`, the IC50 was 1.66 µM.

Source: BindingDB's records for doi:10.1016/j.ejmech.2021.113485 (Samara State Technical University, 2021)
